Assay results reported in patent publication US11760754B2, “Heterocyclic mitochondrial activity inhibitors and uses thereof” (UNIVERSITÉ DE MONTRÉAL, priority 2017, dated 2023).
Where two headings read alike, the source gives them in different places.

Legend:
OCI-AML3 cells = assay: OCI-AML3 cell growth inhibition, dose-response viability assay (CellTiterGlo); assay type: cell-based; settings: read-out: AML-3 EC50
Protocol: Cell dose-response viability assays. […] In the initial screen, compounds were added to seeded cells in serial dilutions (10 dilutions, 1:3, starting from […] 20 μM), in duplicates.
(§1) The potency of the compounds of Example 6 at inhibiting OCI-AML3 cell growth was tested using a procedure similar to that described for Mutritinib in Example 1. […] Murine MLL-AF9 leukemia cells (female cells) were generated by infection with VSV-G-pseudotyped MSCV MLL-AF9 IRES Puro (subcloned from a construct by Frédéric Barabé, Laval U, Quebec, QC, Canada).
(§2) Compounds were added to seeded cells in serial dilutions from 10 μM to 0.5 nM, in duplicates or quadruplicates.

MLL-AF9 cells = assay: MLL-AF9 leukemia cell growth inhibition, dose-response viability assay (CellTiterGlo); assay type: cell-based, murine; settings: read-out: MLL-AF9 EC50
Protocol: as §1, §2

| SMILES | EC50 (OCI-AML3 cells; Homo sapiens, OCI-AML-3, 144 h) [nM] | EC50 (MLL-AF9 cells; Mus musculus, MLL-AF9, 120 h) [nM] | further results |
| --- | --- | --- | --- |
| OCCc1nccn1CCCCc1ccc(OCc2coc(/C=C/c3ccc(C(F)(F)F)cc3)n2)cc1 [Compound 51, (E)-2-(1-(4-(4-((2-(4-(trifluoromethyl)styryl)oxazol-4-yl)methoxy)phenyl)butyl)-1H-imidazol-2-yl)ethanol] | 1000 to 10000 | 500 to 1000 | – |
| CS(=O)(=O)NCCc1nccn1CCCCc1ccc(OCc2coc(/C=C/c3ccc(C(F)(F)F)cc3)n2)cc1 [Compound 54, (E)-N-(2-(1-(4-(4-((2-(4-(trifluoromethyl)styryl)oxazol-4-yl)methoxy)phenyl)butyl)-1H-imidazol-2-yl)ethyl)methanesulfonamide] | 100 to 500 | 100 to 500 | – |
| CCOC(=O)c1nnn(CCCCc2ccc(OCc3coc(/C=C/c4ccc(C(F)(F)F)cc4)n3)cc2)c1C(=O)OCC [Compound 6, (E)-diethyl 1-(4-(4-((2-(4-(trifluoromethyl)styryl)oxazol-4-yl)methoxy)phenyl)butyl)-1H-1,2,3-triazole-4,5-dicarboxylate] | 1000 to 10000 | 1000 to 10000 | – |
| C#CCCC(=O)NCCc1cn(CCCCc2ccc(OCc3coc(/C=C/c4ccc(C(F)(F)F)cc4)n3)cc2)nn1 [Compound 14, (E)-N-(2-(1-(4-(4-((2-(4-(trifluoromethyl)styryl)oxazol-4-yl)methoxy)phenyl)butyl)-1H-1,2,3-triazol-4-yl)ethyl)pent-4-ynamide] | 1000 to 10000 | 500 to 1000 | – |
| Cc1cn(CCCCc2ccc(OCc3coc(/C=C/c4ccc(C(F)(F)F)cc4F)n3)cc2)nn1 [Compound 92, (E)-2-(2-fluoro-4-(trifluoromethyl)styryl)-4-((4-(4-(4-methyl-1H-1,2,3-triazol-1-yl)butyl)phenoxy)methyl) oxazole] | 500 to 1000 | 100 to 500 | – |
| OC(CCCn1ccnn1)c1ccc(OCc2coc(/C=C/c3ccc(OC(F)(F)F)cc3)n2)cc1 (stereo not drawn) [Compound 19, (E)-4-(1H-1,2,3-triazol-1-yl)-1-(4-((2-(4-(trifluoromethoxy)styryl)oxazol-4-yl)methoxy)phenyl)butan-1-ol] | 100 to 500 | 100 to 500 | – |
| COCCNC(=O)OCCc1cn(CCCCc2ccc(OCc3coc(/C=C/c4ccc(C(F)(F)F)cc4)n3)cc2)nn1 [Compound 69, (E)-2-(1-(4-(4-((2-(4-(trifluoromethyl)styryl)oxazol-4-yl)methoxy)phenyl)butyl)-1H-1,2,3-triazol-4-yl)ethyl (2-methoxyethyl)carbamate] | 500 to 1000 | 100 to 500 | – |
| OCc1ccc(/C=C/c2nc(COc3ccc(CCCCn4ccnn4)cc3)co2)cc1 [Compound 60, (E)-(4-(2-(4-((4-(4-(1H-1,2,3-triazol-1-yl)butyl)phenoxy)methyl)oxazol-2-yl)vinyl)phenyl)methanol] | 1000 to 10000 | 1000 to 10000 | – |
| Fc1cc(Br)ccc1/C=C/c1nc(COc2ccc(CCCCn3ccnn3)cc2)co1 [Compound 3A, (E)-((4-(4-(1H-1,2,3-triazol-1-yl)butyl)phenoxy)methyl)-2-(4-bromo-2-fluorostyryl)oxazole] | – | – | EC50 (OCI-AML3 cells; OCI-AML3 cells, 6 days of culture, CellTiterGlo): < 50 nM; EC50 (MLL-AF9 cells; MLL-AF9 cells, 5 days of culture, CellTiterGlo): < 50 nM |
| Fc1cc(C(F)(F)F)ccc1/C=C/c1nc(COc2ccc(CCCCn3ccnc3)cc2)co1 [Compound 100, (E)-4-((4-(4-(1H-imidazol-1-yl)butyl)phenoxy)methyl)-2-(2-fluoro-4-(trifluoromethyl)styryl)oxazole] | 500 to 1000 | 500 to 1000 | – |
| Fc1ccc(/C=C/c2nc(COc3ccc(CCCCn4ccnn4)cc3)co2)cc1F [Compound 121, (E)-4-((4-(4-(1H-1,2,3-triazol-1-yl)butyl)phenoxy)methyl)-2-(3,4-difluorostyryl)oxazole] | 50 to 100 | 50 to 100 | – |
| Fc1cc(F)c2cc(-c3nc(COc4ccc(SCCCn5ccnn5)cc4)co3)[nH]c2c1 [Compound 144, 4-((4-((3-(1H-1,2,3-triazol-1-yl)propyl)thio)phenoxy)methyl)-2-(4,6-difluoro-1H-indol-2-yl)oxazole] | < 50 | < 50 | – |
| Fc1cc(C(F)(F)F)ccc1/C=C/c1nc(COc2ccc(SCCn3ccnn3)cc2)co1 [Compound 147, (E)-4-((4-((2-(1H-1,2,3-triazol-1-yl)ethyl)thio)phenoxy)methyl)-2-(2-fluoro-4-(trifluoromethyl)styryl)oxazole] | < 50 | < 50 | – |
| Fc1cc(C(F)(F)F)ccc1/C=C/c1nc(COc2ccc(CCCCn3ccnn3)cc2)co1 [Compound 48, (E)-4-((4-(4-(1H-1,2,3-triazol-1-yl)butyl)phenoxy)methyl)-2-(2-fluoro-4-(trifluoromethyl)styryl)oxazole] | 50 to 100 | < 50 | – |
| FC(F)(F)c1ccc(-c2nc(COc3ccc(CCCCn4ccnn4)cc3)co2)cc1 [Compound 28, 4-((4-(4-(1H-1,2,3-triazol-1-yl)butyl)phenoxy)methyl)-2-(4-(trifluoromethyl)phenyl)oxazole] | – | – | EC50 (OCI-AML3 cells; Homo sapiens, OCI-AML-3, 144 h, OCI-AML3 cells, 6 days of culture, CellTiterGlo): 1000 to 10000 nM; EC50 (MLL-AF9 cells; Mus musculus, 120 h, MLL-AF9 cells, 5 days of culture, CellTiterGlo): 100 to 500 nM |
| OCCc1cn(CCCCc2ccc(OCc3coc(/C=C/c4ccc(C(F)(F)F)cc4F)n3)cc2)nn1 [Compound 95, (E)-2-(1-(4-(4-((2-(2-fluoro-4-(trifluoromethyl)styryl)oxazol-4-yl)methoxy)phenyl)butyl)-1H-1,2,3-triazol-4-yl)ethanol] | 1000 to 10000 | 100 to 500 | – |
| C#Cc1ccc(/C=C/c2nc(COc3ccc(CCCCn4ccnn4)cc3)co2)cc1 [Compound 64, (E)-4-((4-(4-(1H-1,2,3-triazol-1-yl)butyl)phenoxy)methyl)-2-(4-ethynylstyryl)oxazole] | 1000 to 10000 | 500 to 1000 | – |
| FC(F)(F)c1ccc(C2CC2c2nc(COc3ccc(CCCCn4ccnn4)cc3)co2)cc1 (stereo not drawn) [Compound 76, 4-((4-(4-(1H-1,2,3-triazol-1-yl)butyl)phenoxy)methyl)-2-(2-(4-(trifluoromethyl)phenyl)cyclopropyl)oxazole] | 1000 to 10000 | 1000 to 10000 | – |
| COc1ccc(/C=C/c2nc(COc3ccc(CCCCn4ccnn4)cc3)co2)c(F)c1 [Compound 61, (E)-4-((4-(4-(1H-1,2,3-triazol-1-yl)butyl)phenoxy)methyl)-2-(2-fluoro-4-methoxystyryl)oxazole] | 100 to 500 | 100 to 500 | – |
| O=C(Nc1ccc(CCCCO)cc1)c1coc(/C=C/c2ccc(C(F)(F)F)cc2)n1 [Compound 29, (E)-N-(4-(4-hydroxybutyl)phenyl)-2-(4-(trifluoromethyl)styryl)oxazole-4-carboxamide] | 1000 to 10000 | 100 to 500 | – |
| Fc1cc(C(F)(F)F)ccc1/C=C/c1nc(COc2ccc(CCCCc3cccnc3)cc2)co1 [Compound 102, (E)-2-(2-fluoro-4-(trifluoromethyl)styryl)-4-((4-(4-(pyridin-3-yl)butyl)phenoxy)methyl)oxazole] | 100 to 500 | 100 to 500 | – |
| Fc1ccc2cc(-c3nc(COc4ccc(CCCCn5ccnn5)cc4)co3)[nH]c2c1 [Compound 127, 4-((4-(4-(H-1,2,3-triazol-1-yl)butyl)phenoxy)methyl)-2-(6-fluoro-1H-indol-2-yl)oxazole] | < 50 | < 50 | – |
| FC(F)(F)c1ccccc1/C=C/c1nc(COc2ccc(CCCCn3ccnn3)cc2)co1 [Compound 44, (E)-4-((4-(4-(1H-1,2,3-triazol-1-YI)butyl)phenoxy)methyl)-2-(2-(trifluoromethyl)styryl)oxazole] | 1000 to 10000 | > 10000 | – |
| O=[N+]([O-])c1ccc(/C=C/c2nc(COc3ccc(CCCCc4cccnc4)cc3)co2)c(F)c1 [Compound 103, (E)-2-(2-fluoro-4-nitrostyryl)-4-((4-(4-(pyridin-3-yl)butyl)phenoxy)methyl)oxazole] | 100 to 500 | 100 to 500 | – |
| OCc1nnn(CCCCc2ccc(OCc3coc(/C=C/c4ccc(C(F)(F)F)cc4)n3)cc2)c1CO [Compound 9, (E)-(1-(4-(4-((2-(4-(trifluoromethyl)styryl)oxazol-4-yl)methoxy)phenyl)butyl)-1H-1,2,3-triazole-4,5-diyl)dimethanol] | 1000 to 10000 | 500 to 1000 | – |
| O=S1(=O)CCN(Cc2cnnn2CCCCc2ccc(OCc3coc(/C=C/c4ccc(C(F)(F)F)cc4)n3)cc2)CC1 [Compound 15, (E)-4-((1-(4-(4-((2-(4-(trifluoromethyl)styryl)oxazol-4-yl)methoxy)phenyl)butyl)-1H-1,2,3-triazol-5-yl)methyl)thiomorpholine 1,1-dioxide] | 500 to 1000 | 100 to 500 | – |
| Fc1cc(C(F)(F)F)ccc1/C=C/c1nc(CSc2ccc(CCCn3ccnn3)cc2)co1 [Compound 132, (E)-4-(((4-(3-(1H-1,2,3-triazol-1-yl)propyl)phenyl)thio)methyl)-2-(2-fluoro-4-(trifluoromethyl)styryl)oxazole] | 1000 to 10000 | 500 to 1000 | – |
| Clc1ccccc1/C=C/c1nc(COc2ccc(CCCCn3ccnn3)cc2)co1 [Compound 118, (E)-4-((4-(4-(1H-1,2,3-triazol-1-yl)butyl)phenoxy)methyl)-2-(2-chlorostyryl)oxazole] | 100 to 500 | 100 to 500 | – |
| Fc1ccc2[nH]c(-c3nc(COc4ccc(CCCCn5ccnn5)cc4)co3)cc2c1 [Compound 73] | 100 to 500 | < 50 | – |
| COC(=O)c1ccc(/C=C/c2nc(COc3ccc(CCCCn4ccnn4)cc3)co2)cc1 [Compound 58, (E)-methyl 4-(2-(4-((4-(4-(1H-1,2,3-triazol-1-yl)butyl)phenoxy)methyl)oxazol-2-yl)vinyl)benzoate] | 500 to 1000 | 1000 to 10000 | – |
